Blank lines part the entries; values can stand above or below the compound they belong to.
What was measured:
Assay type in all cases: biochemical
[1] = target: PLK3 (h) (Homo sapiens, UniProt Q9H4B4); experiment: PLK3 human kinase inhibition, SPA; conditions: read-out: PLK3 pIC50 (converted)
How it was run: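 Radiometric scintillation proximity format at pH 8.0 (Hepes, MnCl2, DTT). The 2 μM biotin-peptide substrate is phosphorylated by PLK3 (h) (30 μg/ml) using 0.1 μM ATP traced with 33P, for 20 min at room temperature. EDTA stop; phosphopeptide captured on streptavidin beads and imaged.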

[2] = target: CDK1/CyclinB (h) (Homo sapiens, UniProt P06493); experiment: CDK1/CyclinB human kinase inhibition, Invitrogen's FRET assay (Z'lyte); conditions: read-out: CDK1 pIC50 (converted)
How it was run: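 Read-out is the 460 nm/538 nm emission ratio (390 nm excitation) after a 60 min protease development step. Before that, 10 μM ATP and 2 μM Z'lyte Ser/Thr peptide 12 react 60 min at room temperature with 0.2 μg/ml human CDK1/CyclinB in Hepes pH 7.5 containing MgCl2, EGTA and Brij-35.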

[3] = target: AuroraB (h) (Homo sapiens, UniProt Q96GD4); experiment: Aurora-B human kinase inhibition, SPA; conditions: read-out: AuroraB pIC50 (converted)
How it was run: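 AuroraB (0.5 μg/ml) phosphorylates 3 μM biotin-peptide using 0.5 μM ATP spiked with 33P-ATP in Hepes pH 7.5 with 3 mM MgCl2 and MnCl2, for 60 min at room temperature. EDTA stop solution carries streptavidin scintillant beads, and the captured radiolabel is imaged.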

PLK3 (h), sequence (Q9H4B4 whole entry): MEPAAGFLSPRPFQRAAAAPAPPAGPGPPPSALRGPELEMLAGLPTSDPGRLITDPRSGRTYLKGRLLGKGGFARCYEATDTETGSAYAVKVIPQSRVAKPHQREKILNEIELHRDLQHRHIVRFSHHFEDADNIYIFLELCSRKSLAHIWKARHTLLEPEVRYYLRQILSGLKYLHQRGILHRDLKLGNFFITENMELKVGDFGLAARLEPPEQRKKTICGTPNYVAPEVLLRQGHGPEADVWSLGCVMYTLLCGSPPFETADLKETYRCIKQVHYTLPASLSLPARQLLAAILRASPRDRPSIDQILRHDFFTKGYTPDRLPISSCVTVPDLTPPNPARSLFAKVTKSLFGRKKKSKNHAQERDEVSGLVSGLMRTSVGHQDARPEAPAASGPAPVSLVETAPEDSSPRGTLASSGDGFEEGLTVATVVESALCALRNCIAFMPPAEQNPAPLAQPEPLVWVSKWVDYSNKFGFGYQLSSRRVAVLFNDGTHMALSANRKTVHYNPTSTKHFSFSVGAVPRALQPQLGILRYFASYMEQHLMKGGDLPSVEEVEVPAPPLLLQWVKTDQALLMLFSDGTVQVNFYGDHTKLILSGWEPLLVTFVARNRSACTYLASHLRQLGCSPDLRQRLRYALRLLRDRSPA
CDK1/CyclinB (h), sequence (P06493 whole entry): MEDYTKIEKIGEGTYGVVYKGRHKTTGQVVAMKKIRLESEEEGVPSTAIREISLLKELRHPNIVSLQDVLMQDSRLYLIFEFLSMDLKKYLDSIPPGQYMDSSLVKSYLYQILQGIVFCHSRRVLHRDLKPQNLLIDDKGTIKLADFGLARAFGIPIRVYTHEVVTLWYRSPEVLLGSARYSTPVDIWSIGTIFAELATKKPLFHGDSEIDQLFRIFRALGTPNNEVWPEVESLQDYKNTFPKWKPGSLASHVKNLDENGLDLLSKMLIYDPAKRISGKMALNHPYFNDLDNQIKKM
CDK1/CyclinB (h), sequence (P14635 whole entry partner): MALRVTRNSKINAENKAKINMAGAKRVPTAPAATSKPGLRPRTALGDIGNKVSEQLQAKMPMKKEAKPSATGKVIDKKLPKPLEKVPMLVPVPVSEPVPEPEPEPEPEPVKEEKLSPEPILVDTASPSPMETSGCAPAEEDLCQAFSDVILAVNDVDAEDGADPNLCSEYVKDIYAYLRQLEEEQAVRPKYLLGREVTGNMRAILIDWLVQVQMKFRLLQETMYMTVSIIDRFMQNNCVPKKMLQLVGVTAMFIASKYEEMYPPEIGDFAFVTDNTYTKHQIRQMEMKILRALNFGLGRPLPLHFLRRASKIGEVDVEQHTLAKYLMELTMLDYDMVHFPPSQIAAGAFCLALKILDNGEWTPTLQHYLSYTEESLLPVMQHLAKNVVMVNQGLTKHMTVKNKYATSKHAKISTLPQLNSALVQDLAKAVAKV
AuroraB (h), sequence (Q96GD4 whole entry): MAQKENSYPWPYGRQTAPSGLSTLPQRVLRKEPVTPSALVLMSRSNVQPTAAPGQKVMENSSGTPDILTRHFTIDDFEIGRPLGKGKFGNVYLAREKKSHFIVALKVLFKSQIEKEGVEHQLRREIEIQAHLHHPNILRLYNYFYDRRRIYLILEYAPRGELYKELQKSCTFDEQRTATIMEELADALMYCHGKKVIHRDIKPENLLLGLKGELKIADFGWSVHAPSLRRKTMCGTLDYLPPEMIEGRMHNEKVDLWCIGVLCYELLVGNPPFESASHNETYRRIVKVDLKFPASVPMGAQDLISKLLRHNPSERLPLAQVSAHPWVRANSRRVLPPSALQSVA

SMILES: COc1ccc2cc1CN[C@@H](CO)C(=O)N(C)CCCN(C)c1ccc(cn1)-c1ccnc(n1)N2 [Compound 11]
IC50 [1]: > 10 µM
IC50 [2]: > 10 µM
IC50 [3]: > 10 µM

SMILES: O=C1NCc2ccc(cc2)-c2ccnc(n2)Nc2ccc(N3CCOCC3)c(c2)CN2CCC1CC2 [Compound 12]
IC50 [1]: > 10 µM
IC50 [2]: > 10 µM
IC50 [3]: 2.29 µM

SMILES: COc1cc2cc(c1OC)CN1CCC[C@H]1C(=O)N(C)CCN(C)c1cc(ccn1)-c1ccnc(n1)N2 [Compound 17]
IC50 [1]: > 10 µM
IC50 [2]: 8.13 µM
IC50 [3]: > 10 µM

SMILES: O=C1CN2CCN(CC2)Cc2cc(ccc2N2CCOCC2)Nc2nccc(n2)-c2cccc(c2)CN1 [Compound 20]
IC50 [1]: > 10 µM
IC50 [2]: > 10 µM
IC50 [3]: > 10 µM

SMILES: O=C1NCc2cccc(c2)-c2ccnc(n2)Nc2cc(cc(C(=O)N3CCOCC3)c2)CN2CCC[C@@H]12 [Compound 32]
IC50 [1]: > 10 µM
IC50 [2]: 0.55 µM
IC50 [3]: > 10 µM

SMILES: O=C1NCc2ccc(cc2)-c2ccnc(n2)Nc2ccc(N3CCOCC3)c(c2)CN2CCC[C@@H]12 [Compound 49]
IC50 [1]: > 10 µM
IC50 [2]: > 10 µM
IC50 [3]: > 10 µM

SMILES: COc1cc2cc(c1)Nc1nccc(n1)-c1ccc(cc1)CN(C)CCNC(=O)C1CCN(CC1)C2 [Compound 62]
IC50 [1]: 9.77 µM
IC50 [2]: > 10 µM
IC50 [3]: > 10 µM

SMILES: CC(C)Nc1cc2cc(c1)Nc1nccc(n1)-c1ccc(cc1)CN(C)CCCNC(=O)C1CCN(CC1)C2 [Compound 65]
IC50 [1]: > 10 µM
IC50 [2]: > 10 µM
IC50 [3]: > 10 µM

SMILES: COc1cc2cc(c1)Nc1nccc(n1)-c1ccc(cc1)CN(C)CCCNC(=O)C1CCN(CC1)C2 [Compound 66]
IC50 [1]: > 10 µM
IC50 [2]: > 10 µM
IC50 [3]: > 10 µM

SMILES: COc1cc2cc(c1)Nc1nccc(n1)-c1ccc(OC)c(c1)CN(C)CCNC(=O)C1CCN(CC1)C2 [Compound 67]
IC50 [1]: > 10 µM
IC50 [2]: > 10 µM
IC50 [3]: 5.13 µM

SMILES: COc1cc2cc(c1)Nc1nccc(n1)-c1ccc(OC)c(c1)CN(C)CCCNC(=O)C1CCN(CC1)C2 [Compound 73]
IC50 [1]: > 10 µM
IC50 [2]: > 10 µM
IC50 [3]: > 10 µM

SMILES: COc1ccc2cc1CN(C)CCNC(=O)C1CCN(CC1)Cc1cc(NCCc3ccccc3)cc(c1)Nc1nccc-2n1 [Compound 74]
IC50 [1]: > 10 µM
IC50 [2]: > 10 µM
IC50 [3]: > 10 µM

SMILES: O=C1NCCOc2cccc(c2)-c2ccnc(n2)Nc2ccc(N3CCOCC3)c(c2)CN2CCC1CC2 [Compound 94]
IC50 [1]: > 10 µM
IC50 [2]: > 10 µM
IC50 [3]: > 10 µM

SMILES: O=C1NCc2cccc(c2)-c2ccnc(n2)Nc2ccc(N3CCOCC3)c(c2)CN2CCC1CC2 [Compound 95]
IC50 [1]: > 10 µM
IC50 [2]: 7.24 µM
IC50 [3]: > 10 µM

SMILES: C[C@@H]1NCCc2cccc(c2)-c2ccnc(n2)Nc2ccc(N3CCOCC3)c(c2)CNC1=O [Compound 100]
IC50 [1]: > 10 µM
IC50 [2]: 0.151 µM
IC50 [3]: > 10 µM

SMILES: O=C1CN2CCN(CC2)Cc2cc(ccc2N2CCOCC2)Nc2nccc(n2)-c2cccc(c2)OCCN1 [Compound 102]
IC50 [1]: > 10 µM
IC50 [2]: 2.57 µM
IC50 [3]: > 10 µM

Second part, the compound after the results:

IC50 [1]: > 10 µM
IC50 [2]: > 10 µM
IC50 [3]: 2.95 µM
SMILES: O=C1NCc2cc(ccc2N2CCOCC2)Nc2nccc(n2)-c2cccc(c2)CN2CCC[C@@H]12 [Compound 15]

IC50 [1]: > 10 µM
IC50 [2]: > 10 µM
IC50 [3]: > 10 µM
SMILES: O=C1NCc2cccc(c2)-c2ccnc(n2)Nc2ccc(N3CCOCC3)c(c2)CN[C@H]1Cc1ccccc1 [Compound 18]

IC50 [1]: > 10 µM
IC50 [2]: > 10 µM
IC50 [3]: > 10 µM
SMILES: COc1cc2cc(c1OC)CN1CCC[C@H]1C(=O)NCc1cccc(c1)-c1ccnc(n1)N2 [Compound 23]

IC50 [1]: > 10 µM
IC50 [2]: > 10 µM
IC50 [3]: > 10 µM
SMILES: CN1CCN(C(=O)c2ccc3cc2CN2CCC[C@H]2C(=O)NCc2cccc(c2)-c2ccnc(n2)N3)CC1 [Compound 25]

IC50 [1]: > 10 µM
IC50 [2]: > 10 µM
IC50 [3]: > 10 µM
SMILES: O=C1NCc2cccc(c2)-c2ccnc(n2)Nc2ccc(C(=O)N3CCOCC3)c(c2)CN2CCC[C@@H]12 [Compound 26]

IC50 [1]: > 10 µM
IC50 [2]: 1.91 µM
IC50 [3]: > 10 µM
SMILES: O=C1NCc2cccc(c2)-c2ccnc(n2)Nc2ccc(N3CCOCC3)c(c2)CN2C[C@@H](O)C[C@@H]12 [Compound 27]

IC50 [1]: > 10 µM
IC50 [2]: 1.23 µM
IC50 [3]: > 10 µM
SMILES: CN1CCN(C(=O)c2cc3cc(c2)Nc2nccc(n2)-c2cccc(c2)CNC(=O)[C@@H]2CCCN2C3)CC1 [Compound 34]

IC50 [1]: > 10 µM
IC50 [2]: 0.288 µM
IC50 [3]: > 10 µM
SMILES: CN(C)C(=O)c1cc2cc(c1)Nc1nccc(n1)-c1cccc(c1)CNC(=O)[C@@H]1CCCN1C2 [Compound 35]

IC50 [1]: > 10 µM
IC50 [2]: 5.37 µM
IC50 [3]: 4.9 µM
SMILES: O=C(NC1CCOCC1)c1cc2cc(c1)Nc1nccc(n1)-c1cccc(c1)CNC(=O)[C@@H]1CCCN1C2 [Compound 37]

IC50 [1]: > 3.02 µM
IC50 [2]: 1.66 µM
IC50 [3]: > 10 µM
SMILES: CN1CCC(NC(=O)c2cc3cc(c2)Nc2nccc(n2)-c2cccc(c2)CNC(=O)[C@@H]2CCCN2C3)CC1 [Compound 38]

IC50 [1]: > 10 µM
IC50 [2]: 1.45 µM
IC50 [3]: > 10 µM
SMILES: CN(C)CCNC(=O)c1cc2cc(c1)Nc1nccc(n1)-c1cccc(c1)CNC(=O)[C@@H]1CCCN1C2 [Compound 39]

IC50 [1]: > 10 µM
IC50 [2]: 0.427 µM
IC50 [3]: > 10 µM
SMILES: O=C1NCc2cc(ccc2N2CCOCC2)Nc2nccc(n2)-c2cccc(c2)CCN2CCC[C@@H]12 [Compound 43]

IC50 [1]: > 10 µM
IC50 [2]: 0.427 µM
IC50 [3]: > 10 µM
SMILES: COCCNC(=O)c1cc2cc(c1)Nc1nccc(n1)-c1cccc(c1)CNC(=O)[C@@H]1CCCN1C2 [Compound 44]

IC50 [1]: > 10 µM
IC50 [2]: 0.0708 µM
IC50 [3]: > 10 µM
SMILES: O=C1NCc2cccc(c2)-c2ccnc(n2)Nc2cccc(c2)CN2C[C@@H](O)C[C@@H]12 [Compound 45]

IC50 [1]: > 1 µM
IC50 [2]: 2 µM
IC50 [3]: > 10 µM
SMILES: CN1CCC(NC(=O)c2ccc3cc2CN2CCC[C@H]2C(=O)NCc2cccc(c2)-c2ccnc(n2)N3)CC1 [Compound 47]

IC50 [1]: > 10 µM
IC50 [2]: > 10 µM
IC50 [3]: > 10 µM
SMILES: O=C1NCc2cccc(c2)-c2ccnc(n2)Nc2cc(ccc2Cl)CN2CCC[C@@H]12 [Compound 51]

IC50 [1]: > 10 µM
IC50 [2]: > 10 µM
IC50 [3]: > 10 µM
SMILES: O=C1NCc2cccc(c2)-c2ccnc(n2)Nc2cc(ccc2Cl)CN2C[C@H](O)C[C@@H]12 [Compound 52]

IC50 [1]: > 10 µM
IC50 [2]: > 10 µM
IC50 [3]: > 10 µM
SMILES: O=C1NCc2cccc(c2)-c2ccnc(n2)Nc2ccc(cc2)CN2CCC[C@@H]12 [Compound 54]

IC50 [1]: > 10 µM
IC50 [2]: > 10 µM
IC50 [3]: > 10 µM
SMILES: O=C1NCc2cccc(c2)-c2ccnc(n2)Nc2ccc(cc2)CN2C[C@H](O)C[C@@H]12 [Compound 55]

IC50 [1]: > 10 µM
IC50 [2]: > 10 µM
IC50 [3]: > 10 µM
SMILES: O=C1NCc2ccc(cc2)-c2ccnc(n2)Nc2ccc(N3CCOCC3)c(c2)CN2C[C@H](O)C[C@@H]12 [Compound 56]

IC50 [1]: > 1 µM
IC50 [2]: > 10 µM
IC50 [3]: > 10 µM
SMILES: O=C1NCc2cccc(c2)-c2ccnc(n2)Nc2ccccc2CN2CCC[C@@H]12 [Compound 57]

IC50 [1]: > 10 µM
IC50 [2]: > 10 µM
IC50 [3]: > 10 µM
SMILES: CC(C)(C)O[C@@H]1C[C@H]2C(=O)NCc3cccc(c3)-c3ccnc(n3)Nc3ccccc3CN2C1 [Compound 58]

IC50 [1]: > 10 µM
IC50 [2]: > 10 µM
IC50 [3]: > 10 µM
SMILES: C[C@@H]1NCc2cccc(c2)-c2ccnc(n2)Nc2ccc(N3CCOCC3)c(c2)CNC1=O [Compound 101]

— US8609836B2, “4-aryl-2-anilino-pyrimidines” (Janssen Pharmaceutica NV, priority 2008, dated 2013)
